# According to the supplement of paper PMC10307832:
# Assays:
# Test in all cases: relative viability (nuclei count vs DMSO), 5 days (fraction); higher = more cells survive
# [1] = compound: C1CNCCC1C2=CC(=NN2)C3=CC=NC=C3 + CCNC(=O)c1noc(-c2cc(C(C)C)c(O)cc2O)c1-c1ccc(CN2CCOCC2)cc1 [Luminespib] (partner 0.01 µM)
# In short: (§1)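 Lung cancer cell lines in 1536-well plates were dosed by pin tool the day after seeding, either with one drug alone or with a fixed anchor-drug dose plus five library-drug doses (not always all listed) in √10 steps. After 5 days, cells were fixed and their nuclei stained in one step (final 0.05% Triton X-100, 1% formaldehyde, 1 ug/ml Hoechst), then counted on 4× images. Relative viability is the nuclei count in treated wells divided by that in vehicle wells. Values are medians of duplicate plates.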
# [2] = compound: C[C@@H](N)c1ccc(C(=O)Nc2ccnc3[nH]ccc23)cc1 + Cc1cc(Nc2cc(N3CCN(C)CC3)nc(Sc3ccc(NC(=O)C4CC4)cc3)n2)n[nH]1 [Tozasertib] (partner 0.1 µM)
# In short: as §1
# [3] = compound: C[C@@H](N)c1ccc(C(=O)Nc2ccnc3[nH]ccc23)cc1 + N=C(N)NC(=N)NCCc1ccccc1 [Phenformin] (partner 250 µM)
# In short: as §1
# [4] = compound: C[C@@H](N)c1ccc(C(=O)Nc2ccnc3[nH]ccc23)cc1 + NC(=O)Nc1cc(-c2cccc(F)c2)sc1C(=O)N[C@H]1CCCNC1 [AZD7762] (partner 0.2 µM)
# In short: as §1
cell line,measurement,setting,value
NCI-H1395,relative viability,[1]; first compound 0.08 µM,0.771
same,relative viability,[1]; first compound 0.8 µM,0.692
same,relative viability,[1]; first compound 2.53 µM,0.563
same,relative viability,[1]; first compound 8 µM,0.764
same,relative viability,[2]; first compound 0.04 µM,0.811
same,relative viability,[2]; first compound 0.1265 µM,0.749
same,relative viability,[2]; first compound 0.4 µM,0.739
same,relative viability,[2]; first compound 1.265 µM,0.805
same,relative viability,[2]; first compound 4 µM,0.656
same,relative viability,[3]; first compound 0.04 µM,0.433
same,relative viability,[3]; first compound 0.1265 µM,0.497
same,relative viability,[3]; first compound 0.4 µM,0.436
same,relative viability,[3]; first compound 1.265 µM,0.36
same,relative viability,[3]; first compound 4 µM,0.453
same,relative viability,[4]; first compound 0.04 µM,0.396
same,relative viability,[4]; first compound 0.1265 µM,0.391
same,relative viability,[4]; first compound 0.4 µM,0.395
same,relative viability,[4]; first compound 4 µM,0.39
NCI-H1437,relative viability,[1]; first compound 0.08 µM,1.1
same,relative viability,[1]; first compound 0.8 µM,1.16
same,relative viability,[1]; first compound 2.53 µM,1.09
same,relative viability,[1]; first compound 8 µM,1.14
same,relative viability,[2]; first compound 0.04 µM,0.462
same,relative viability,[2]; first compound 0.1265 µM,0.433
same,relative viability,[2]; first compound 0.4 µM,0.448
same,relative viability,[2]; first compound 1.265 µM,0.436
same,relative viability,[2]; first compound 4 µM,0.408
same,relative viability,[3]; first compound 0.04 µM,0.335
same,relative viability,[3]; first compound 0.1265 µM,0.346
same,relative viability,[3]; first compound 0.4 µM,0.35
same,relative viability,[3]; first compound 1.265 µM,0.324
same,relative viability,[3]; first compound 4 µM,0.336
same,relative viability,[4]; first compound 0.04 µM,1.12
same,relative viability,[4]; first compound 0.1265 µM,1.13
same,relative viability,[4]; first compound 0.4 µM,1.14
same,relative viability,[4]; first compound 1.265 µM,1.13
same,relative viability,[4]; first compound 4 µM,1.04
NCI-H1651,relative viability,[1]; first compound 0.08 µM,0.719
same,relative viability,[1]; first compound 0.8 µM,1.11
same,relative viability,[1]; first compound 2.53 µM,0.807
same,relative viability,[1]; first compound 8 µM,0.838
same,relative viability,[2]; first compound 0.04 µM,0.844
same,relative viability,[2]; first compound 0.1265 µM,0.602
same,relative viability,[2]; first compound 0.4 µM,0.798
same,relative viability,[2]; first compound 1.265 µM,0.871
same,relative viability,[2]; first compound 4 µM,0.885
same,relative viability,[3]; first compound 0.04 µM,0.426
same,relative viability,[3]; first compound 0.1265 µM,0.315
same,relative viability,[3]; first compound 0.4 µM,0.312
same,relative viability,[3]; first compound 1.265 µM,0.372
same,relative viability,[3]; first compound 4 µM,0.301
same,relative viability,[4]; first compound 0.04 µM,0.484
same,relative viability,[4]; first compound 0.1265 µM,0.493
same,relative viability,[4]; first compound 0.4 µM,0.574
same,relative viability,[4]; first compound 1.265 µM,0.737
same,relative viability,[4]; first compound 4 µM,0.675
NCI-H1666,relative viability,[1]; first compound 0.08 µM,0.921
same,relative viability,[1]; first compound 0.8 µM,1.11
same,relative viability,[1]; first compound 2.53 µM,1.05
same,relative viability,[1]; first compound 8 µM,1.01
same,relative viability,[2]; first compound 0.04 µM,0.605
same,relative viability,[2]; first compound 0.1265 µM,0.618
same,relative viability,[2]; first compound 0.4 µM,0.63
same,relative viability,[2]; first compound 1.265 µM,0.698
same,relative viability,[2]; first compound 4 µM,0.593
same,relative viability,[3]; first compound 0.04 µM,0.534
same,relative viability,[3]; first compound 0.1265 µM,0.603
same,relative viability,[3]; first compound 0.4 µM,0.651
same,relative viability,[3]; first compound 1.265 µM,0.631
same,relative viability,[3]; first compound 4 µM,0.561
same,relative viability,[4]; first compound 0.04 µM,0.824
same,relative viability,[4]; first compound 0.1265 µM,0.953
same,relative viability,[4]; first compound 0.4 µM,1.13
same,relative viability,[4]; first compound 1.265 µM,1.12
same,relative viability,[4]; first compound 4 µM,0.98
NCI-H1734,relative viability,[1]; first compound 0.08 µM,0.183
same,relative viability,[1]; first compound 0.8 µM,0.201
same,relative viability,[1]; first compound 2.53 µM,0.195
same,relative viability,[1]; first compound 8 µM,0.219
same,relative viability,[2]; first compound 0.04 µM,0.263
same,relative viability,[2]; first compound 0.1265 µM,0.247
same,relative viability,[2]; first compound 0.4 µM,0.259
same,relative viability,[2]; first compound 1.265 µM,0.213
same,relative viability,[2]; first compound 4 µM,0.202
same,relative viability,[3]; first compound 0.04 µM,0.355
same,relative viability,[3]; first compound 0.1265 µM,0.383
same,relative viability,[3]; first compound 0.4 µM,0.431
same,relative viability,[3]; first compound 1.265 µM,0.282
same,relative viability,[3]; first compound 4 µM,0.397
same,relative viability,[4]; first compound 0.04 µM,0.461
same,relative viability,[4]; first compound 0.1265 µM,0.526
same,relative viability,[4]; first compound 0.4 µM,0.575
same,relative viability,[4]; first compound 1.265 µM,0.414
same,relative viability,[4]; first compound 4 µM,0.57
NCI-H1755,relative viability,[1]; first compound 0.08 µM,0.301
same,relative viability,[1]; first compound 2.53 µM,0.417
same,relative viability,[1]; first compound 8 µM,0.64
same,relative viability,[2]; first compound 0.04 µM,0.568
same,relative viability,[2]; first compound 0.1265 µM,0.602
same,relative viability,[2]; first compound 0.4 µM,0.725
same,relative viability,[2]; first compound 1.265 µM,0.581
same,relative viability,[2]; first compound 4 µM,0.559
same,relative viability,[3]; first compound 0.04 µM,0.504
same,relative viability,[3]; first compound 0.1265 µM,0.687
same,relative viability,[3]; first compound 0.4 µM,0.657
same,relative viability,[3]; first compound 1.265 µM,0.525
same,relative viability,[3]; first compound 4 µM,0.426
same,relative viability,[4]; first compound 0.04 µM,0.408
same,relative viability,[4]; first compound 0.1265 µM,0.46
same,relative viability,[4]; first compound 0.4 µM,0.451
same,relative viability,[4]; first compound 1.265 µM,0.362
same,relative viability,[4]; first compound 4 µM,0.397
NCI-H1793,relative viability,[1]; first compound 0.08 µM,0.197
same,relative viability,[1]; first compound 0.8 µM,0.169
same,relative viability,[1]; first compound 2.53 µM,0.182
same,relative viability,[1]; first compound 8 µM,0.186
same,relative viability,[2]; first compound 0.04 µM,0.447
same,relative viability,[2]; first compound 0.1265 µM,0.32
same,relative viability,[2]; first compound 0.4 µM,0.367
same,relative viability,[2]; first compound 4 µM,0.378
same,relative viability,[3]; first compound 0.04 µM,0.355
same,relative viability,[3]; first compound 0.1265 µM,0.424
same,relative viability,[3]; first compound 0.4 µM,0.421
same,relative viability,[3]; first compound 4 µM,0.393
same,relative viability,[4]; first compound 0.04 µM,0.409
same,relative viability,[4]; first compound 0.1265 µM,0.62
same,relative viability,[4]; first compound 0.4 µM,0.442
same,relative viability,[4]; first compound 4 µM,0.73
NCI-H1915,relative viability,[1]; first compound 0.08 µM,0.746
same,relative viability,[1]; first compound 0.8 µM,0.876
same,relative viability,[1]; first compound 2.53 µM,0.791
same,relative viability,[1]; first compound 8 µM,0.734
same,relative viability,[2]; first compound 0.04 µM,0.455
same,relative viability,[2]; first compound 0.1265 µM,0.472
same,relative viability,[2]; first compound 0.4 µM,0.45
same,relative viability,[2]; first compound 4 µM,0.331
same,relative viability,[3]; first compound 0.04 µM,0.289
same,relative viability,[3]; first compound 0.1265 µM,0.37
same,relative viability,[3]; first compound 0.4 µM,0.38
same,relative viability,[3]; first compound 4 µM,0.319
same,relative viability,[4]; first compound 0.1265 µM,0.785
same,relative viability,[4]; first compound 0.4 µM,0.697
same,relative viability,[4]; first compound 4 µM,0.691
NCI-H1944,relative viability,[1]; first compound 0.08 µM,0.665
same,relative viability,[1]; first compound 0.8 µM,0.691
same,relative viability,[1]; first compound 2.53 µM,0.81
same,relative viability,[1]; first compound 8 µM,0.693
same,relative viability,[2]; first compound 0.04 µM,0.278
same,relative viability,[2]; first compound 0.1265 µM,0.269
same,relative viability,[2]; first compound 0.4 µM,0.271
same,relative viability,[2]; first compound 1.265 µM,0.258
same,relative viability,[2]; first compound 4 µM,0.218
same,relative viability,[3]; first compound 0.04 µM,0.157
same,relative viability,[3]; first compound 0.1265 µM,0.216
same,relative viability,[3]; first compound 0.4 µM,0.153
same,relative viability,[3]; first compound 1.265 µM,0.165
same,relative viability,[3]; first compound 4 µM,0.138
same,relative viability,[4]; first compound 0.04 µM,0.479
same,relative viability,[4]; first compound 0.1265 µM,0.542
same,relative viability,[4]; first compound 0.4 µM,0.611
same,relative viability,[4]; first compound 1.265 µM,0.798
same,relative viability,[4]; first compound 4 µM,0.606
